Several values for one entry are separate records, joined by “and”; a condition that tells them apart may be missing. Identical values can stand only once. Like-named read-outs stand apart in the source and are kept apart here.
How the values were obtained:
[1] = +37° C.; for Mean concentration of Naloxone N-oxide in human plasma samples / Mean concentration of Naloxone N-oxide in human whole blood samples: mean of n=3; for Concentrations of Naloxone N-oxide in human plasma samples / Concentrations of Naloxone N-oxide in human whole blood samples: single replicates
Excerpt: Analytical procedures followed were based on those outlined in the “Guideline on Bioanalytical Method Validation”, EMA, CHMP, EWP, July 2011 and “Reflection paper for laboratories that perform the analysis or evaluation of clinical trial samples, 28 Feb. 2012, EMA/INS/GCP/532137/2010” with reference to the “Guidance for Industry, Bioanalytical Method Validation” recommendations issued by the U.S. Department of Health and Human Services, Food and Drug Administration, Center for Drug Evaluation and Research (CDER), Center for Veterinary Medicine (CVM), May 2001, BP.
Control blank human plasma and blood containing K2EDTA as an anti-coagulant, was obtained from Clinical Trials Laboratory Service or BAS volunteers and was stored at nominally −20° C. and +4° C., respectively, when not in use. The mass spectrometer used was an Applied Biosystems AP15000 with the following settings:
All instrument control, data collection, peak area integration and storage was performed using Analyst (version 1.5.2). Peak areas were then imported into Watson LIMS (version 7.2.0.02) for regression and quantification. The mass spectrometer response (peak area ratio of analyte to internal standard) of each calibration standard was calculated by Watson LIMS and plotted against the nominal (prepared) concentration. A weighted (1/x^2) least squares linear regression analysis was used to calculate an equation of the calibration line.
Any concentrations below this level are reported as below the limit of quantification (BLQ). Samples with initial concentrations above the upper limit of quantification ([…]) were re-injected with a reduced injection volume (alongside QC High with reduced injection volume) and sample concentrations interpolated against a calibration curve injected with normal injection volume.

[2] = Concentration of saturated antagonist solutions in phosphate buffer pH 5.0; type: physicochemical; conditions: phosphate buffer pH 5.0, stirred overnight, filtered
Procedure: The determination of in vitro skin permeation was performed with saturated solutions of the respective antagonist species. Therefore an excess of the antagonist was weighed in phosphate buffer of pH 5.0 and stirred overnight. pH was monitored and, if necessary, adjusted. The cells were incubated at 32° C. Solutions were filtrated through a syringe filter (1 μm PTFE) prior to application into the diffusion cells. Concentrations of the solutions were determined.
The determination of naloxone and naloxone N-oxide in the acceptor medium of the in vitro skin permeations samples (receptor phase) was done by HPLC with UV-detection.

[3] = Log P by potentiometric (pH-metric) octanol/water titration; type: physicochemical; conditions: Neutral species, […] C., […] KCl
Procedure: pKa analysis was performed using a pH-metric method. […] No precipitation or degradation was observed and two pKas were determined from the potentiometric data. Log P was determined using the potentiometric (pH-metric method). The sample was titrated in various ratios of octanol/water in two titrations covering the pH range 2.0-12.0 at concentrations of 1.9-1.1 mM. The shift of the aqueous pKas in the presence of octanol was used to determine the log P of the neutral species.

[4] = Intrinsic in vitro skin permeation of saturated antagonist solutions (Franz cell); type: in vitro ADME; conditions: saturated donor solution pH 5.0, human skin
Procedure: Diffusion cells (made of glass) with a vertical application and a volume of 5 ml were used. The human skin used for the analysis came from an aesthetic operation. Belly skin from female donors was supplied from plastic surgery. After arrival, skin was visually checked whether it was without any scars and stretch marks. A layer of 200-400 μm was cut with a dermatome. The permeation area of 0.82 cm^2 was punched out of the skin.
The diffusion cell consists of a donor chamber and a receptor compartment, the skin is fixed between both. The sampling and volume replacement were executed via an autosampler.

[5] = spiked with Naloxone-N-oxide 10 ng/mL, 0 minutes
[6] = spiked with Naloxone-N-oxide 10 ng/mL, 10 minutes
[7] = spiked with Naloxone-N-oxide 10 ng/mL, 20 minutes
[8] = spiked with Naloxone-N-oxide 10 ng/mL, 30 minutes
[9] = spiked with Naloxone-N-oxide 10 ng/mL, 45 minutes
[10] = spiked with Naloxone-N-oxide 10 ng/mL, 60 minutes
[11] = spiked with Naloxone-N-oxide 10 ng/mL, 120 minutes
[12] = spiked with Naloxone-N-oxide 50 ng/mL, 0 minutes
[13] = spiked with Naloxone-N-oxide 50 ng/mL, 10 minutes
[14] = spiked with Naloxone-N-oxide 50 ng/mL, 20 minutes
[15] = spiked with Naloxone-N-oxide 50 ng/mL, 30 minutes
[16] = spiked with Naloxone-N-oxide 50 ng/mL, 45 minutes
[17] = spiked with Naloxone-N-oxide 50 ng/mL, 60 minutes
[18] = spiked with Naloxone-N-oxide 50 ng/mL, 120 minutes
[19] = spiked with Naloxone-N-oxide 250 ng/mL, 0 minutes
[20] = spiked with Naloxone-N-oxide 250 ng/mL, 10 minutes
[21] = spiked with Naloxone-N-oxide 250 ng/mL, 20 minutes
[22] = spiked with Naloxone-N-oxide 250 ng/mL, 30 minutes
[23] = spiked with Naloxone-N-oxide 250 ng/mL, 45 minutes
[24] = spiked with Naloxone-N-oxide 250 ng/mL, 60 minutes
[25] = spiked with Naloxone-N-oxide 250 ng/mL, 120 minutes

C=CC[N+]1([O-])CC[C@]23c4c5ccc(O)c4O[C@H]2C(=O)CC[C@@]3(O)[C@H]1C5 (some centres unmarked) [Naloxone N-oxide]
Conversion of Naloxone-N-oxide to Naloxone in plasma (in words) ([1]; 2 hour time course): small, but insignificant amount of conversion | Conversion to Naloxone in whole blood (in words) ([1]; 2 hour time course): rapidly converts to Naloxone in whole blood | Mean concentration of Naloxone N-oxide in human plasma samples [1, 5]: 0.01 µg/mL | Mean concentration of Naloxone N-oxide in human whole blood samples [1, 5]: 0.00745 µg/mL | Concentrations of Naloxone N-oxide in human plasma samples [1, 5]: 9.93 ng/mL and 9.87 ng/mL and 10.2 ng/mL | Concentrations of Naloxone N-oxide in human whole blood samples [1, 5]: 7.95 ng/mL and 7.69 ng/mL and 6.70 ng/mL | Mean concentration of Naloxone N-oxide in human plasma samples [1, 6]: 0.0102 µg/mL | Mean concentration of Naloxone N-oxide in human whole blood samples [1, 6]: 0.00602 µg/mL | Concentrations of Naloxone N-oxide in human plasma samples [1, 6]: 9.61 ng/mL and 10.4 ng/mL and 10.7 ng/mL | Concentrations of Naloxone N-oxide in human whole blood samples [1, 6]: 5.94 ng/mL and 6.11 ng/mL and 6.01 ng/mL | Mean concentration of Naloxone N-oxide in human plasma samples [1, 7]: 0.0103 µg/mL | Mean concentration of Naloxone N-oxide in human whole blood samples [1, 7]: 0.00453 µg/mL | Concentrations of Naloxone N-oxide in human plasma samples [1, 7]: 10.6 ng/mL and 10.3 ng/mL and 9.93 ng/mL | Concentrations of Naloxone N-oxide in human whole blood samples [1, 7]: 4.70 ng/mL and 4.15 ng/mL and 4.75 ng/mL | Mean concentration of Naloxone N-oxide in human plasma samples [1, 8]: 0.00996 µg/mL | Mean concentration of Naloxone N-oxide in human whole blood samples [1, 8]: 0.00313 µg/mL | Concentrations of Naloxone N-oxide in human plasma samples [1, 8]: 9.37 ng/mL and 10.1 ng/mL and 10.4 ng/mL | Concentrations of Naloxone N-oxide in human whole blood samples [1, 8]: 2.77 ng/mL and 3.14 ng/mL and 3.47 ng/mL | Mean concentration of Naloxone N-oxide in human plasma samples [1, 9]: 0.0104 µg/mL | Mean concentration of Naloxone N-oxide in human whole blood samples [1, 9]: 0.00215 µg/mL | Concentrations of Naloxone N-oxide in human plasma samples [1, 9]: 10.7 ng/mL and 10.0 ng/mL and 10.4 ng/mL | Concentrations of Naloxone N-oxide in human whole blood samples [1, 9]: 2.18 ng/mL and 2.27 ng/mL and 2.01 ng/mL | Mean concentration of Naloxone N-oxide in human plasma samples [1, 10]: 0.0103 µg/mL | Mean concentration of Naloxone N-oxide in human whole blood samples [1, 10]: 0.00187 µg/mL | Concentrations of Naloxone N-oxide in human plasma samples [1, 10]: 10.3 ng/mL and 10.6 ng/mL and 10.1 ng/mL | Concentrations of Naloxone N-oxide in human whole blood samples [1, 10]: 1.79 ng/mL and 1.81 ng/mL and 2.02 ng/mL | Mean concentration of Naloxone N-oxide in human plasma samples [1, 11]: 0.0103 µg/mL | Mean concentration of Naloxone N-oxide in human whole blood samples [1, 11]: 0.00151 µg/mL | Concentrations of Naloxone N-oxide in human plasma samples [1, 11]: 10.4 ng/mL (2×) and 10.1 ng/mL | Concentrations of Naloxone N-oxide in human whole blood samples [1, 11]: 1.55 ng/mL and 1.57 ng/mL and 1.41 ng/mL | Mean concentration of Naloxone N-oxide in human plasma samples [1, 12]: 0.0449 µg/mL | Mean concentration of Naloxone N-oxide in human whole blood samples [1, 12]: 0.0454 µg/mL | Concentrations of Naloxone N-oxide in human plasma samples [1, 12]: 48.5 ng/mL and 45.6 ng/mL and 40.5 ng/mL | Concentrations of Naloxone N-oxide in human whole blood samples [1, 12]: 48.9 ng/mL and 41.3 ng/mL and 46.0 ng/mL | Mean concentration of Naloxone N-oxide in human plasma samples [1, 13]: 0.046 µg/mL | Mean concentration of Naloxone N-oxide in human whole blood samples [1, 13]: 0.0259 µg/mL | Concentrations of Naloxone N-oxide in human plasma samples [1, 13]: 43.4 ng/mL and 48.7 ng/mL and 45.8 ng/mL | Concentrations of Naloxone N-oxide in human whole blood samples [1, 13]: 26.0 ng/mL and 25.0 ng/mL and 26.8 ng/mL | Mean concentration of Naloxone N-oxide in human plasma samples [1, 14]: 0.0484 µg/mL | Mean concentration of Naloxone N-oxide in human whole blood samples [1, 14]: 0.0204 µg/mL | Concentrations of Naloxone N-oxide in human plasma samples [1, 14]: 50.1 ng/mL and 47.1 ng/mL and 48.1 ng/mL | Concentrations of Naloxone N-oxide in human whole blood samples [1, 14]: 20.3 ng/mL and 21.1 ng/mL and 19.9 ng/mL | Mean concentration of Naloxone N-oxide in human plasma samples [1, 15]: 0.0463 µg/mL | Mean concentration of Naloxone N-oxide in human whole blood samples [1, 15]: 0.016 µg/mL | Concentrations of Naloxone N-oxide in human plasma samples [1, 15]: 46.9 ng/mL and 44.1 ng/mL and 47.9 ng/mL | Concentrations of Naloxone N-oxide in human whole blood samples [1, 15]: 15.9 ng/mL and 15.2 ng/mL and 16.9 ng/mL | Mean concentration of Naloxone N-oxide in human plasma samples [1, 16]: 0.0474 µg/mL | Mean concentration of Naloxone N-oxide in human whole blood samples [1, 16]: 0.0144 µg/mL | Concentrations of Naloxone N-oxide in human plasma samples [1, 16]: 47.6 ng/mL and 49.1 ng/mL and 45.4 ng/mL | Concentrations of Naloxone N-oxide in human whole blood samples [1, 16]: 14.1 ng/mL (2×) and 15.1 ng/mL | Mean concentration of Naloxone N-oxide in human plasma samples [1, 17]: 0.048 µg/mL | Mean concentration of Naloxone N-oxide in human whole blood samples [1, 17]: 0.0104 µg/mL | Concentrations of Naloxone N-oxide in human plasma samples [1, 17]: 50.0 ng/mL and 46.0 ng/mL and 48.1 ng/mL | Concentrations of Naloxone N-oxide in human whole blood samples [1, 17]: 10.7 ng/mL and 10.6 ng/mL and 10.0 ng/mL | Mean concentration of Naloxone N-oxide in human plasma samples [1, 18]: 0.0461 µg/mL | Mean concentration of Naloxone N-oxide in human whole blood samples [1, 18]: 0.00424 µg/mL | Concentrations of Naloxone N-oxide in human plasma samples [1, 18]: 47.6 ng/mL and 43.9 ng/mL and 46.8 ng/mL | Concentrations of Naloxone N-oxide in human whole blood samples [1, 18]: 3.99 ng/mL and 4.51 ng/mL and 4.22 ng/mL | Mean concentration of Naloxone N-oxide in human plasma samples [1, 19]: 0.233 µg/mL | Mean concentration of Naloxone N-oxide in human whole blood samples [1, 19]: 0.255 µg/mL | Concentrations of Naloxone N-oxide in human plasma samples [1, 19]: 236 ng/mL and 233 ng/mL and 229 ng/mL | Concentrations of Naloxone N-oxide in human whole blood samples [1, 19]: 245 ng/mL and 254 ng/mL and 265 ng/mL | Mean concentration of Naloxone N-oxide in human plasma samples [1, 20]: 0.225 µg/mL | Mean concentration of Naloxone N-oxide in human whole blood samples [1, 20]: 0.141 µg/mL | Concentrations of Naloxone N-oxide in human plasma samples [1, 20]: 218 ng/mL and 234 ng/mL and 223 ng/mL | Concentrations of Naloxone N-oxide in human whole blood samples [1, 20]: 135 ng/mL and 143 ng/mL and 144 ng/mL | Mean concentration of Naloxone N-oxide in human plasma samples [1, 21]: 0.232 µg/mL | Mean concentration of Naloxone N-oxide in human whole blood samples [1, 21]: 0.111 µg/mL | Concentrations of Naloxone N-oxide in human plasma samples [1, 21]: 228 ng/mL and 241 ng/mL and 226 ng/mL | Concentrations of Naloxone N-oxide in human whole blood samples [1, 21]: 107 ng/mL and 111 ng/mL and 115 ng/mL | Mean concentration of Naloxone N-oxide in human plasma samples [1, 22]: 0.229 µg/mL | Mean concentration of Naloxone N-oxide in human whole blood samples [1, 22]: 0.0976 µg/mL | Concentrations of Naloxone N-oxide in human plasma samples [1, 22]: 231 ng/mL and 229 ng/mL and 226 ng/mL | Concentrations of Naloxone N-oxide in human whole blood samples [1, 22]: 99.0 ng/mL and 96.8 ng/mL and 97.1 ng/mL | Mean concentration of Naloxone N-oxide in human plasma samples [1, 23]: 0.228 µg/mL | Mean concentration of Naloxone N-oxide in human whole blood samples [1, 23]: 0.0814 µg/mL | Concentrations of Naloxone N-oxide in human plasma samples [1, 23]: 225 ng/mL and 228 ng/mL and 230 ng/mL | Concentrations of Naloxone N-oxide in human whole blood samples [1, 23]: 78.2 ng/mL and 80.8 ng/mL and 85.3 ng/mL | Mean concentration of Naloxone N-oxide in human plasma samples [1, 24]: 0.231 µg/mL | Mean concentration of Naloxone N-oxide in human whole blood samples [1, 24]: 0.069 µg/mL | Concentrations of Naloxone N-oxide in human plasma samples [1, 24]: 242 ng/mL and 229 ng/mL and 221 ng/mL | Concentrations of Naloxone N-oxide in human whole blood samples [1, 24]: 73.9 ng/mL and 65.5 ng/mL and 67.7 ng/mL | Mean concentration of Naloxone N-oxide in human plasma samples [1, 25]: 0.225 µg/mL | Mean concentration of Naloxone N-oxide in human whole blood samples [1, 25]: 0.0493 µg/mL | Concentrations of Naloxone N-oxide in human plasma samples [1, 25]: 239 ng/mL and 226 ng/mL and 211 ng/mL | Concentrations of Naloxone N-oxide in human whole blood samples [1, 25]: 46.8 ng/mL and 52.8 ng/mL and 48.3 ng/mL | Concentration saturated solution c [2]: 3960 µg/mL | logP [3]: −0.42 | Permeation through the skin (in words) [4]: Naloxone N-oxide did not permeate through the skin.
